# Measured values published in PubChem BioAssay AID2060492 (Molecular Pharmacology Branch, DTP, NCI, 2025).
# System: 695427-040-R-J1-PDC complex spheroids, viability percent T/C
# Assay: Anticancer human tumor 695427-040-R-J1-PDC patient-derived colon adenocarcinoma cell line growth inhibition [GQUAD]
# Conditions: for IC50: curve of first compound; for viability, T/C: stronger effect = lower value
# Procedure, shortened: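 Tumor cells were grown as complex spheroids with HUVEC endothelial cells and mesenchymal stem cells as stroma. G-quadruplex stabilizers were combined with targeted agents over half-log dilutions from near the clinical Cmax, or from 10 microM.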
# [1] = second compound 0.0316 µM, first compound 0.0316 µM
# [2] = second compound 0.0316 µM, first compound 0.316 µM
# [3] = second compound 0.1 µM, first compound 0.0316 µM
# [4] = second compound 0.1 µM, first compound 0.316 µM
# [5] = second compound 0.316 µM, first compound 0.0316 µM
# [6] = second compound 0.316 µM, first compound 0.316 µM
# [7] = second compound 1 µM, first compound 0.0316 µM
# [8] = second compound 1 µM, first compound 0.316 µM
# [9] = second compound 3.16 µM, first compound 0.0316 µM
# [10] = second compound 3.16 µM, first compound 0.316 µM
# [11] = second compound 10 µM, first compound 0.0316 µM
# [12] = second compound 10 µM, first compound 0.316 µM
# 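Note: spheroids exposed to compounds for seven days before readout.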
smiles,measurement,setting,value
COc1cc(C2c3cc4c(cc3C(OC3OC5COC(C)OC5C(O)C3O)C3COC(=O)C23)OCO4)cc(OC)c1O (centres undefined) + Cc1cnc(CNC(=O)c2c(=O)c3ccc(N4CCCN(C)CC4)nc3n3c2sc2ccccc23)cn1,IC50,second compound 0.0316 µM,> 10000 nM
same,IC50,second compound 0.1 µM,> 10000 nM
same,IC50,second compound 0.316 µM,> 10000 nM
same,IC50,second compound 1 µM,> 10000 nM
same,IC50,second compound 3.16 µM,< 31.6 nM
same,IC50,second compound 10 µM,< 31.6 nM
same,"viability, T/C",[1],87.3%
same,"viability, T/C","second compound 0.0316 µM, first compound 0.1 µM",94.9%
same,"viability, T/C",[2],92.7%
same,"viability, T/C","second compound 0.0316 µM, first compound 1 µM",54.4%
same,"viability, T/C","second compound 0.0316 µM, first compound 3.16 µM",64.1%
same,"viability, T/C","second compound 0.0316 µM, first compound 10 µM",60.3%
same,"viability, T/C",[3],84.8%
same,"viability, T/C","second compound 0.1 µM, first compound 0.1 µM",79.2%
same,"viability, T/C",[4],70.3%
same,"viability, T/C","second compound 0.1 µM, first compound 1 µM",62.9%
same,"viability, T/C","second compound 0.1 µM, first compound 3.16 µM",75.5%
same,"viability, T/C","second compound 0.1 µM, first compound 10 µM",65.2%
same,"viability, T/C",[5],71.3%
same,"viability, T/C","second compound 0.316 µM, first compound 0.1 µM",79.2%
same,"viability, T/C",[6],70.5%
same,"viability, T/C","second compound 0.316 µM, first compound 1 µM",63%
same,"viability, T/C","second compound 0.316 µM, first compound 3.16 µM",73%
same,"viability, T/C","second compound 0.316 µM, first compound 10 µM",69.7%
same,"viability, T/C",[7],47.5%
same,"viability, T/C","second compound 1 µM, first compound 0.1 µM",74.7%
same,"viability, T/C",[8],71.3%
same,"viability, T/C","second compound 1 µM, first compound 1 µM",59.8%
same,"viability, T/C","second compound 1 µM, first compound 3.16 µM",70%
same,"viability, T/C","second compound 1 µM, first compound 10 µM",55.7%
same,"viability, T/C",[9],33.4%
same,"viability, T/C","second compound 3.16 µM, first compound 0.1 µM",50.7%
same,"viability, T/C",[10],46.3%
same,"viability, T/C","second compound 3.16 µM, first compound 1 µM",50%
same,"viability, T/C","second compound 3.16 µM, first compound 3.16 µM",50.9%
same,"viability, T/C","second compound 3.16 µM, first compound 10 µM",45.7%
same,"viability, T/C",[11],38.8%
same,"viability, T/C","second compound 10 µM, first compound 0.1 µM",34.7%
same,"viability, T/C",[12],41.8%
same,"viability, T/C","second compound 10 µM, first compound 1 µM",45.4%
same,"viability, T/C","second compound 10 µM, first compound 3.16 µM",56%
same,"viability, T/C","second compound 10 µM, first compound 10 µM",36.7%
Cn1ncnc1[C@H]1c2n[nH]c(=O)c3cc(F)cc(c23)N[C@@H]1c1ccc(F)cc1 + Cc1cnc(CNC(=O)c2c(=O)c3ccc(N4CCCN(C)CC4)nc3n3c2sc2ccccc23)cn1,IC50,second compound 0.0316 µM,> 316 nM
same,IC50,second compound 0.1 µM,> 316 nM
same,IC50,second compound 0.316 µM,> 316 nM
same,IC50,second compound 1 µM,> 316 nM
same,IC50,second compound 3.16 µM,> 316 nM
same,IC50,second compound 10 µM,< 0.999 nM
same,"viability, T/C","second compound 0.0316 µM, first compound 0.000999 µM",98.9%
same,"viability, T/C","second compound 0.0316 µM, first compound 0.00316 µM",84.2%
same,"viability, T/C","second compound 0.0316 µM, first compound 0.00999 µM",96.4%
same,"viability, T/C",[1],66.4%
same,"viability, T/C","second compound 0.0316 µM, first compound 0.0999 µM",86.2%
same,"viability, T/C",[2],71.7%
same,"viability, T/C","second compound 0.1 µM, first compound 0.000999 µM",93.5%
same,"viability, T/C","second compound 0.1 µM, first compound 0.00316 µM",101%
same,"viability, T/C","second compound 0.1 µM, first compound 0.00999 µM",87.5%
same,"viability, T/C",[3],62.9%
same,"viability, T/C","second compound 0.1 µM, first compound 0.0999 µM",91.8%
same,"viability, T/C",[4],60.6%
same,"viability, T/C","second compound 0.316 µM, first compound 0.000999 µM",65.7%
same,"viability, T/C","second compound 0.316 µM, first compound 0.00316 µM",83.5%
same,"viability, T/C","second compound 0.316 µM, first compound 0.00999 µM",88.1%
same,"viability, T/C",[5],71.5%
same,"viability, T/C","second compound 0.316 µM, first compound 0.0999 µM",66%
same,"viability, T/C",[6],66%
same,"viability, T/C","second compound 1 µM, first compound 0.000999 µM",53.7%
same,"viability, T/C","second compound 1 µM, first compound 0.00316 µM",53.9%
same,"viability, T/C","second compound 1 µM, first compound 0.00999 µM",60.7%
same,"viability, T/C",[7],55.9%
same,"viability, T/C","second compound 1 µM, first compound 0.0999 µM",82.5%
same,"viability, T/C",[8],56.5%
same,"viability, T/C","second compound 3.16 µM, first compound 0.000999 µM",51.6%
same,"viability, T/C","second compound 3.16 µM, first compound 0.00316 µM",48.7%
same,"viability, T/C","second compound 3.16 µM, first compound 0.00999 µM",53%
same,"viability, T/C",[9],62.1%
same,"viability, T/C","second compound 3.16 µM, first compound 0.0999 µM",63.3%
same,"viability, T/C",[10],46.5%
same,"viability, T/C","second compound 10 µM, first compound 0.000999 µM",37.8%
same,"viability, T/C","second compound 10 µM, first compound 0.00316 µM",44.7%
same,"viability, T/C","second compound 10 µM, first compound 0.00999 µM",58.2%
same,"viability, T/C",[11],47.7%
same,"viability, T/C","second compound 10 µM, first compound 0.0999 µM",58.5%
same,"viability, T/C",[12],40.1%
